Key:
Assay type in all cases: cell-based, mink
[1] = test system: luciferase reporter gene driven by the PAI-1 promoter; test: Luciferase activity assay, MLECs-clone 32
Method: (A, B, C, D, E, F) Cells were treated with 50 μg/ml cholesterol (A, B, C, D) and 50 μg/ml LDL (D) at 37° C. for 1 hr or with 1 μM fluvastatin or lovastatin (E) or several concentrations of fluvastatin (F) at 37° C. for 16 hr and then further incubated with increasing concentrations (as indicated) of TGF-β1 (A, B, C, E) or 50 pM TGF-β1 (D,F) for 2 hr. Northern blot analysis of PAI-1 and G3PDH was performed. A representative of a total of three analyses is shown (a). The relative intensities of the transcripts were quantified with a PhosphoImager. The ratio of the relative intensities of PAI-1 and G3PDH transcripts in cells treated without TGF-β1 and cholesterol, LDL or statins on the blot was taken as 1 fold or 100% of PAI-1 expression. The quantitative data from three independent analyses is shown (b). […] (G) Mv1Lu cells stably expressing a luciferase reporter gene driven by the PAI-1 promoter (MLECs-clone 32) were treated with increasing concentrations (as indicated) of cholesterol at 37 EC for 1 hr (a) or with 1 μM lovastatin at 37° C. for 16 hr (b) and then further incubated with 50 pM TGF-β for 7 hr. The luciferase activity in cells treated without cholesterol was taken as 100% (a). […] (H) Cells were incubated with 0.0625 and 0.125 pM TGF-β1 in the presence of increasing concentrations of cholesterol, as indicated. […] The experiments were carried out in triplicate.

[2] = test system: Smad2 phosphorylation stimulated by TGF-β1; test: TGF-β1-stimulated Smad2 phosphorylation, Western blot, Mv1Lu cells
Method: Cells were treated with increasing concentrations of cholesterol, as indicated (A, B, C), 50 μg protein/ml LDL (D), 5 μg protein/ml VLDL (D) or 50 μg/ml cholesterol (E) at 37° C. for 1 hr and then further incubated with 50 pM TGF-β1 for 30 min. Phosphorylated Smad2 (P-Smad2) and total Smad2 in the cell lysates were analyzed by 7.5% SDS-PAGE and followed by immunoblot analysis using anti-P-Smad2 and anti-Smad2 antibodies. A representative of a total of 3 analyses is shown (top). The quantitative analysis of the immunoblots is shown (bottom). […] Smad2 nuclear translocation was analyzed by indirect immunofluorescent staining using P-Smad2 antibody and rhodamine-labeled 2nd antibody (E). Rhodamine fluorescence represents P-Smad2 staining (a,b,c) whereas the nuclei were stained by DAPI staining (d,e,f).
Cells grown to near confluence on 12-well cluster dishes were treated with cholesterol or LDL in serum-free DMEM (vol.=0.5 ml/well) at 37° C. for 1 hr. […] Treated cells were lysed and cell lysates were analyzed by 7.5% SDS-PAGE and Western blot analysis using anti-Smad2, anti-P-Smad2, anti-caveolin-1, anti-TβR-I (alk5) or anti-TβR-II antibodies as described previously (30). […]
It has been reported that TGF-β responsiveness is determined by TGF-β partitioning between lipid raft/caveolae-mediated and clathrin-mediated endocytosis. […]

[3] = test system: Smad2 nuclear translocation; test: Smad2 nuclear translocation, indirect immunofluorescent staining, Mv1Lu cells; settings: 50 μg/ml 1 hr, then 50 pM TGF-β1 30 min
Method: Cells were treated with increasing concentrations of cholesterol, as indicated (A, B, C), 50 μg protein/ml LDL (D), 5 μg protein/ml VLDL (D) or 50 μg/ml cholesterol (E) at 37° C. for 1 hr and then further incubated with 50 pM TGF-β1 for 30 min. […] Smad2 nuclear translocation was analyzed by indirect immunofluorescent staining using P-Smad2 antibody and rhodamine-labeled 2nd antibody (E). Rhodamine fluorescence represents P-Smad2 staining (a,b,c) whereas the nuclei were stained by DAPI staining (d,e,f).
For indirect immunofluorescent staining, cells grown on cover glass were fixed in cold 100% methanol and then incubated with antibody to P-Smad2 overnight. The antigen was visualized by incubation with Rhodamine-conjugated goat antibody to rabbit IgG followed by immunofluorescence microscopy.
To test this possibility, we determined the effect of cholesterol treatment on Smad2 phosphorylation and nuclear translocation, both of which are key signaling events, leading to TGF-β responsiveness. […] To determine the effect of cholesterol on Smad2 nuclear translocation, Mv1Lu cells were treated with 50 μg/ml cholesterol at 37° C. for 1 hr and then further incubated with and without 50 pM TGF-β1 at 37° C. for 30 min. These cells were subjected to immunofluorescent staining using anti-P-Smad2 antibody and nuclear DAPI (4′,6-diamidine-2-phenylindole dihydrochloride) staining.

SMILES	enhancement of TGF-β1-stimulated luciferase activity ([1]; 1 μM, 16 hr, 50 pM TGF-β1)	effect of cholesterol alone on TGF-β-stimulated luciferase activity ([1]; 25 ug/ml, without lovastatin)	suppression of TGF-β1-stimulated luciferase activity ([1]; 50 μg/ml, 50 pM TGF-β1)	luciferase activity ([1]; cells treated with cholesterol (25 ug/ml), lovastatin and TGF-β1)	effect on the stimulatory effect of lovastatin on TGF-β-stimulated luciferase activity ([1]; cholesterol 25 ug/ml for 1 hr prior to TGF-β stimulation)	suppression of Smad2 phosphorylation stimulated by TGF-β1 ([2]; 25 μg/ml, 37° C. 1 hr, then 50 pM TGF-β1 0.5 hr, Mv1Lu cells)	effect on Smad2 phosphorylation ([2]; at concentrations of 6 or 10 μg/ml, Mv1Lu, BAEC, NRK cells (FIG. 1))	effect on Smad2 nuclear translocation [3]
CC[C@H](C)C(=O)O[C@H]1C[C@@H](C)C=C2C=C[C@H](C)[C@H](CC[C@@H]3C[C@@H](O)CC(=O)O3)[C@H]21 [lovastatin, reference compound]	1.7 fold							
CC(C)CCC[C@@H](C)[C@H]1CC[C@H]2[C@@H]3CC=C4C[C@@H](O)CC[C@]4(C)[C@H]3CC[C@]12C [cholesterol]		did not alter	40%	2314±120 A.U	abolished	55%	appreciably suppressed	suppressed
